Test results from patent US9957271B2, “Substituted bicyclic aza-heterocycles and analogues as sirtuin modulators” (GlaxoSmithKline, LLC, priority 2012, dated 2018).

Legend:
[1] = molecular target: T1, SIRT1 (Homo sapiens, UniProt Q96EB6); assay: Trp mass spectrometry assay of SIRT1 activity; type: biochemical; conditions: Trp assay; for Trp EC1.5 (μM): concentration giving 150% activation of SIRT1; for Emax: percent maximum fold activation, read-out: Trp % Fold Act
T1 sequence (Q96EB6 1-747): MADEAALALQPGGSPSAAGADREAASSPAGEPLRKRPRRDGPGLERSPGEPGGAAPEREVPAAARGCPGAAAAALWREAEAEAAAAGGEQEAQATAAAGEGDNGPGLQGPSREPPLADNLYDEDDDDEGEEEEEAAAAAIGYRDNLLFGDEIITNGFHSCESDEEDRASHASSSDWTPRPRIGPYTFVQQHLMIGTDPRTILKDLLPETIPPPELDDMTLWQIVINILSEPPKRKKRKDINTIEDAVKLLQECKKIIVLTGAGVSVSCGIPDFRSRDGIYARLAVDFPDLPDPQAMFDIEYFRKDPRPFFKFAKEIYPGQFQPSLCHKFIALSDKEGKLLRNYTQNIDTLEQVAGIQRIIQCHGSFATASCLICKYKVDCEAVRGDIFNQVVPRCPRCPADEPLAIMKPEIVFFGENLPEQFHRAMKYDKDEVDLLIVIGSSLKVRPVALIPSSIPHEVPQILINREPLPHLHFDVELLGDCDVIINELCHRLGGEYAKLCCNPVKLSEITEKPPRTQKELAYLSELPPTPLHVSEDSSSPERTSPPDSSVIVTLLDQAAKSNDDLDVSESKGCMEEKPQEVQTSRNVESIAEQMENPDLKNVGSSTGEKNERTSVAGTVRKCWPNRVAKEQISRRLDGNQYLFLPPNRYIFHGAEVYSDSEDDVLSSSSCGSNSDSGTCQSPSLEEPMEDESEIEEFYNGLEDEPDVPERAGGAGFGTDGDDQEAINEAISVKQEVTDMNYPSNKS
Outline: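 His-tagged SIRT1 expressed in E. coli BL21(DE3), 10 nM, incubated 25 min at 25° C. with 0.5 μM Ac-RHKK(Ac)W-NH2 peptide and 120 μM βNAD+ in 50 mM HEPES pH 7.5, […], 1 mM DTT, 0.05% BSA; formic acid stop. OAADPR or deacetylated peptide measured by mass spectrometry; EC1.5 and percent maximum activation versus DMSO control.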

[2] = molecular target: T1, SIRT1; assay: TAMRA based mass spectrometry assay of SIRT1 activity; type: biochemical; conditions: TAMRA assay; for TAMRA EC1.5 (μM): concentration giving 150% activation of SIRT1; for Emax: percent maximum fold activation, read-out: TAMRA % Fold Act
Outline: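 Recombinant N-terminal His-tagged human SIRT1 (10 nM, E. coli) incubated 25 min at 25 °C with 0.5 μM 5TMR-labelled p53-derived acetyl-peptide and 120 μM βNAD+ in Tris-acetate pH 8 buffer with DTT and 0.05% BSA, compound at varying concentrations. Stopped with formic acid; deacetylated peptide or OAADPR measured by mass spectrometry relative to DMSO controls.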

Compound	Trp EC1.5 (μM) [1]	Emax [1] [%]	TAMRA EC1.5 (μM) [2]	Emax [2] [%]
N#Cc1ccccc1-c1ccc2ncc(NC(=O)c3cccc(N4CCC4)n3)n2n1 [Compound 338]	A (EC1.5<1 μM)	< 350	A (EC1.5<1 μM)	≥ 350
N#Cc1ccccc1-c1ccc2ncc(NC(=O)c3cccc(OCC(O)CO)n3)n2n1 (stereo not drawn) [Compound 339]	A (EC1.5<1 μM)	< 350	A (EC1.5<1 μM)	≥ 350
Cc1nc2ccc(-c3ccccc3Cl)nn2c1NC(=O)c1ccccn1 [Compound 346]	C (EC1.5>25 μM)	< 350	B (EC1.5 1-25 μM)	< 350
Cc1nc2ccc(-c3ccccc3Cl)nn2c1NC(=O)c1ccncn1 [Compound 348]	C (EC1.5>25 μM)	< 350	C (EC1.5>25 μM)	< 350
Cc1nc(C(=O)Nc2c(C)nc3ccc(-c4ccccc4Cl)nn23)cs1 [Compound 351]	C (EC1.5>25 μM)	< 350	B (EC1.5 1-25 μM)	< 350
Cc1nc(C(=O)Nc2c(C)nc3ccc(-c4ccccc4Cl)nn23)c(C)s1 [Compound 352]	C (EC1.5>25 μM)	< 350	B (EC1.5 1-25 μM)	< 350
Cc1cnc(C(=O)Nc2c(C)nc3ccc(-c4ccccc4Cl)nn23)s1 [Compound 354]	C (EC1.5>25 μM)	< 350	B (EC1.5 1-25 μM)	< 350
Cc1nc2ccc(-c3ccccc3Cl)nn2c1NC(=O)c1cccc(OCC(O)CO)n1 (stereo not drawn) [Compound 357]	C (EC1.5>25 μM)	< 350	C (EC1.5>25 μM)	< 350
O=C(Nc1cccc(N2CCOCC2)n1)c1cnc2ccc(-c3cccc(OCC(O)CO)c3)nn12 (stereo not drawn) [Compound 372]	A (EC1.5<1 μM)	< 350	A (EC1.5<1 μM)	≥ 350
Cc1nc2ccc(-c3ccccc3C(F)(F)F)nn2c1NC(=O)c1nccs1 [Compound 380]	C (EC1.5>25 μM)	< 350	B (EC1.5 1-25 μM)	≥ 350
Cc1cnc(C(=O)Nc2c(C)nc3ccc(-c4ccccc4C(F)(F)F)nn23)s1 [Compound 381]	C (EC1.5>25 μM)	< 350	B (EC1.5 1-25 μM)	≥ 350

Results, then the compound that gave them:

Trp EC1.5 (μM) [1]	Emax [1] [%]	TAMRA EC1.5 (μM) [2]	Emax [2] [%]	Compound
A (EC1.5<1 μM)	≥ 350	A (EC1.5<1 μM)	≥ 350	CC1(COc2ccnc(NC(=O)c3cnc4ccc(-c5ccccc5C(F)(F)F)nn34)n2)COC1 [Compound 340]
B (EC1.5 1-25 μM)	≥ 350	A (EC1.5<1 μM)	≥ 350	O=C(Nc1ccncn1)c1cnc2ccc(-c3ccccc3OC(F)(F)F)nn12 [Compound 358]
A (EC1.5<1 μM)	< 350	B (EC1.5 1-25 μM)	< 350	O=C(Nc1ccc(F)cn1)c1cnc2ccc(-c3ccccc3OC(F)(F)F)nn12 [Compound 360]
A (EC1.5<1 μM)	≥ 350	A (EC1.5<1 μM)	≥ 350	Cc1cc(NC(=O)c2cnc3ccc(-c4ccccc4OC(F)(F)F)nn23)ccn1 [Compound 364]
B (EC1.5 1-25 μM)	≥ 350	A (EC1.5<1 μM)	≥ 350	Cc1cccc(NC(=O)c2cnc3ccc(-c4ccccc4OCC(O)CO)nn23)n1 (stereo not drawn) [Compound 369]
C (EC1.5>25 μM)	< 350	B (EC1.5 1-25 μM)	≥ 350	Cc1nc2ccc(-c3ccccc3C(F)(F)F)nn2c1NC(=O)c1ccccn1 [Compound 375]
C (EC1.5>25 μM)	< 350	B (EC1.5 1-25 μM)	< 350	Cc1nc2ccc(-c3ccccc3C(F)(F)F)nn2c1NC(=O)c1ccncn1 [Compound 377]
